Series [1] is described as follows: Behaviour of the permethrin-on-carrier formulation on substrates (activity duration, spreading, adherence). The following applies: permethrin trapped in porous carrier (Silcron G100) in barrier/transfer agent composition.
The format of series [2] is physicochemical. As to the method:
DEET is incorporated into the pores, if any present, and onto the surfaces of a carrier. The evaporation rate of DEET from a thin film was then measured by weight. The film was smeared onto a glass slide and its weight was measured as a function of time. The initial weight of the film was 0.0231 grams and the area that was covered was […] (thickness ca 10 microns). The weight of the film leveled off at 0.019 grams when the DEET was fully evaporated, approximately 36 hours after application. Half of the DEET, about 2 milligrams on 3 square inches, remained 16 hours after application.

For `CC1(C)C(C=C(Cl)Cl)C1C(=O)OCc1cccc(Oc2ccccc2)c1` (centres unmarked) [permethrin], the “Activity duration of permethrin in the formulation” value in series [1] is given as “significantly prolonged”.
On to `CCN(CC)C(=O)c1cccc(C)c1` [DEET], for which, in series [2] (16 h), the “Amount of DEET remaining” value is recorded as “about 2 milligrams”. For the same molecule, the “Time after application at which half of the DEET remained” value in series [2] (thin film ca 10 microns on glass slide) stood at 16 h. In series [2] (thin film ca 10 microns smeared on glass slide, initial film weight 0.0231 grams, time after application), the “Time until DEET was fully evaporated from the film” value is on record as “approximately 36 hours”. Further, in series [2] (when the DEET was fully evaporated, initial film weight 0.0231 grams), the “Weight at which the film leveled off” value was 0.019 grams.

The record behind these values is patent US20100040565A1, “ACTIVE DELIVERY SYSTEMS FORMULATIONS” (Castle Beach, LLC, priority 2008, published 2010).
